ChEMBL document CHEMBL2062379, “Cleavage mechanism and anti-tumor activity of 3,6-epidioxy-1,10-bisaboladiene isolated from edible wild plants” (Bioorg Med Chem, 2012)
One block for each compound: values may come before it. Calls of active or inactive are those of the source. No cut-off for these calls is given here.

Assays:
DMS-273 = experiment: Growth inhibition of human DMS273 cells; format: functional
MCF7 = experiment: Growth inhibition of human MCF7 cells; format: functional
ACHN = experiment: Growth inhibition of human ACHN cells; format: functional
HL-60 [1] = experiment: Induction of apoptosis in human HL60 cells assessed as caspase 9 activation at 1 uM after 12 hrs by spectrophotometric analysis; format: functional, cell-based
HL-60 [2] = experiment: Cytotoxicity against human HL60 cells after 48 hrs by MTT assay in presence of DFOM; format: functional, cell-based; details: HL-60, 48 h
OVCAR-5 = experiment: Growth inhibition of human OVCAR5 cells; format: functional
MKN-45 = experiment: Growth inhibition of human MKN45 cells; format: functional
NCI-H23 = experiment: Growth inhibition of human NCI-H23 cells; format: functional
HL-60 [3] = experiment: Induction of apoptosis in human HL60 cells assessed as caspase 9 activation after 1 to 3 hrs by spectrophotometric analysis; format: functional, cell-based
MKN-7 = experiment: Growth inhibition of human MKN7 cells; format: functional
[4] = Growth inhibition of human MKN1 cells; format: functional; details: MKN-1
OVCAR-3 = experiment: Growth inhibition of human OVCAR3 cells; format: functional
SNB-75 = experiment: Growth inhibition of human SNB75 cells; format: functional
KM12 = experiment: Growth inhibition of human KM12 cells; format: functional
MKN-74 = experiment: Growth inhibition of human MKN74 cells; format: functional
NCI-H460 = experiment: Growth inhibition of human NCI-H460 cells; format: functional
HCT-15 = experiment: Growth inhibition of human HCT15 cells; format: functional
HL-60 [5] = experiment: Cytotoxicity against human HL60 cells after 48 hrs by MTT assay in absence of DFOM; format: functional, cell-based; details: HL-60, 48 h
SF-539 = experiment: Growth inhibition of human SF539 cells; format: functional
[6] = Growth inhibition of human HBC4 cells; format: functional
HL-60 [7] = experiment: Induction of apoptosis in human HL60 cells assessed as caspase 8 activation after 1 to 3 hrs by spectrophotometric analysis; format: functional, cell-based
HL-60 [8] = experiment: Induction of apoptosis in human HL60 cells assessed as caspase 3/7 activation after 1 to 3 hrs by spectrophotometric analysis; format: functional, cell-based
HL-60 [9] = experiment: Ratio of IC50 for human HL60 cells in presence of DFOM to IC50 for human HL60 cells in absence of DFOM; format: functional
DU-145 = experiment: Growth inhibition of human DU145 cells; format: functional
[10] = Growth inhibition of human RXF631L cells; format: functional; details: RXF 631
HL-60 [11] = experiment: Induction of apoptosis in human HL60 cells assessed as caspase 8 activation at 1 uM after 12 hrs by spectrophotometric analysis; format: functional, cell-based
HCC 2998 = experiment: Growth inhibition of human HCC2998 cells; format: functional
SNB-78 = experiment: Growth inhibition of human SNB78 cells; format: functional
HL-60 [12] = experiment: Induction of apoptosis in human HL60 cells assessed as caspase 3/7 activation at 1 uM after 12 hrs by spectrophotometric analysis; format: functional, cell-based
OVCAR-8 = experiment: Growth inhibition of human OVCAR8 cells; format: functional
NCI-H522 = experiment: Growth inhibition of human NCI-H522 cells; format: functional
Saccharomyces cerevisiae [13] = experiment: Growth restoration activity in cdc2-1 rad9-deficient Saccharomyces cerevisiae assessed as growth zone at 400 ug/disc; format: functional, organism-based
HT-29 = experiment: Growth inhibition of human HT-29 cells; format: functional
[14] = Growth inhibition of human HBC5 cells; format: functional
OVCAR-4 = experiment: Growth inhibition of human OVCAR4 cells; format: functional
St-4 = experiment: Growth inhibition of human St-4 cells; format: functional
SF-295 = experiment: Growth inhibition of human SF295 cells; format: functional
NCI-H226 = experiment: Growth inhibition of human NCI-H226 cells; format: functional
SK-OV-3 = experiment: Growth inhibition of human SKOV3 cells; format: functional
DMS-114 = experiment: Growth inhibition of human DMS114 cells; format: functional
HL-60 [15] = experiment: Cytotoxicity against human HL60 cells after 48 hrs by MTT assay; format: functional, cell-based; details: HL-60, 48 h
[16] = Growth inhibition of human BSY1 cells; format: functional; details: BSY-1
MDA-MB-231 = experiment: Growth inhibition of human MDA-MB-231 cells; format: functional
MKN-28 = experiment: Growth inhibition of human MKN28 cells; format: functional
A549 = experiment: Growth inhibition of human A549 cells; format: functional
Saccharomyces cerevisiae [17] = experiment: Growth restoration activity in cdc2-1 rad9-deficient Saccharomyces cerevisiae assessed as growth zone at 12.5 to 400 ug/disc incubated at 37 degC for 6 hrs and 28 degC for 2 days; format: functional, organism-based
HCT-116 = experiment: Growth inhibition of human HCT116 cells; format: functional
SF-268 = experiment: Growth inhibition of human SF268 cells; format: functional
U-251 = experiment: Growth inhibition of human U251 cells; format: functional
LOX IMVI = experiment: Growth inhibition of human LOXIMVI cells; format: functional
PC-3 = experiment: Growth inhibition of human PC3 cells; format: functional
Saccharomyces cerevisiae [18] = experiment: Growth restoration activity in cdc2-1 rad9-deficient Saccharomyces cerevisiae assessed as growth zone at 10 ug/disc incubated at 37 degC for 6 hrs and 28 degC for 2 days; format: functional
HL-60 [19] = experiment: Induction of apoptosis in human HL60 cells assessed as caspase 3/7 activation at 200 uM after 1 hrs by spectrophotometric analysis; format: functional, cell-based
HL-60 [20] = experiment: Induction of apoptosis in human HL60 cells assessed as caspase 9 activation at 200 uM after 1 hrs by spectrophotometric analysis; format: functional, cell-based
HL-60 [21] = experiment: Induction of apoptosis in human HL60 cells assessed as caspase 8 activation at 200 uM after 1 hrs by spectrophotometric analysis; format: functional, cell-based
[22] = Drug metabolism in buffer at pH 8 after 24 hrs by HPLC analysis in presence of […]; format: physicochemical; details: pH 8, 24 h
Saccharomyces cerevisiae [23] = experiment: Growth restoration activity in cdc2-1 rad9-deficient Saccharomyces cerevisiae assessed as growth zone at 5 ug/disc incubated at 37 degC for 6 hrs and 28 degC for 2 days; format: functional, organism-based
HL-60 [24] = experiment: Cytotoxicity against human HL60 cells at 80 uM after 48 hrs by MTT assay; format: functional, cell-based
Saccharomyces cerevisiae [25] = experiment: Growth restoration activity in cdc2-1 rad9-deficient Saccharomyces cerevisiae assessed as growth zone at 0.05 ug/disc incubated at 37 degC for 6 hrs and 28 degC for 2 days; format: functional

- GI50 (MCF7): 6.17 µM
- GI50 (ACHN): 7.08 µM
- GI50 (OVCAR-5): 12.9 µM
- GI50 (MKN-45): 5.25 µM
- GI50 (NCI-H23): 6.17 µM
- GI50 (MKN-7): 3.02 µM
- GI50 (OVCAR-3): 10.2 µM
- GI50 (MKN-74): 3.98 µM
- GI50 (NCI-H460): 7.41 µM
- GI50 (HCT-15): 912 nM
- GI50 (DU-145): 18.6 µM
- GI50 (HCC 2998): 14.8 µM
- GI50 (OVCAR-8): 4.17 µM
- GI50 (NCI-H522): 2290 nM
- GI50 (HT-29): 4.37 µM
- GI50 (OVCAR-4): 12.9 µM
- GI50 (NCI-H226): 15.8 µM
- GI50 (SK-OV-3): 10.2 µM
- GI50 (MDA-MB-231): 19.1 µM
- GI50 (MKN-28): 4.57 µM
- GI50 (A549): 15.5 µM
- GI50 (HCT-116): 1350 nM
- GI50 (U-251): 3.31 µM
- GI50 (PC-3): 3.16 µM
Structure (SMILES): C[C@H]1[C@@H](O)O[C@@H]2O[C@@]3(C)CC[C@H]4[C@H](C)CC[C@@H]1[C@@]24OO3 [ARTENIMOL]
- GI50 (DMS-273): 4.47 µM
- Activity (HL-60 [1]): Active
- IC50 (HL-60 [2]): > 20 µM
- Activity (HL-60 [3]): Dose-dependent effect
- GI50 [4]: 3.89 µM
- GI50 (SNB-75): 11.7 µM
- GI50 (KM12): 6.03 µM
- IC50 (HL-60 [5]): 0.18 µM
- GI50 (SF-539): 9.77 µM
- GI50 [6]: 2040 nM
- Activity (HL-60 [7]): Dose-dependent effect
- Activity (HL-60 [8]): Dose-dependent effect
- Ratio IC50 (HL-60 [9]): >100
- GI50 [10]: 25.7 µM
- Activity (HL-60 [11]): Active
- GI50 (SNB-78): 8.32 µM
- Activity (HL-60 [12]): Active
- Activity (Saccharomyces cerevisiae [13]): inactive
- GI50 [14]: 5.37 µM
- GI50 (St-4): 5.37 µM
- GI50 (SF-295): 15.5 µM
- GI50 (DMS-114): 1580 nM
- IC50 (HL-60 [15]): 0.26 µM
- GI50 [16]: 11.2 µM
- Activity (Saccharomyces cerevisiae [17]): inactive
- GI50 (SF-268): 20.9 µM
- GI50 (LOX IMVI): 3.16 µM

Structure (SMILES): NC(=O)NO [HYDROXYUREA]
- Activity (Saccharomyces cerevisiae [18]): 14.3 mm

- Drug metabolism [22]: Not Active
Structure (SMILES): CC(C)=CCC[C@@H](C)c1ccc(C)cc1
- IC50 (HL-60 [2]): 147 µM
- Activity (HL-60 [19]): Active
- IC50 (HL-60 [5]): 107 µM
- Activity (HL-60 [20]): Active
- Activity (Saccharomyces cerevisiae [13]): inactive
- Activity (HL-60 [21]): Active
- IC50 (HL-60 [15]): 109 µM

Structure (SMILES): CC(C)=CCCC(C)[C@@]12CC[C@]3(C)O[C@@H]3[C@@H]1O2 (relative stereo)
- Activity (Saccharomyces cerevisiae [23]): inactive
- Activity (HL-60 [24]): inactive

Structure (SMILES): COc1c(C)c2c(c(O)c1C/C=C(\C)CCC(=O)O)C(=O)OC2 [MYCOPHENOLIC ACID]
- Activity (Saccharomyces cerevisiae [25]): 18.5 mm
